Experimental data reported in patent publication US10829520B2, “Beta-hairpin peptidomimetics” (POLYPHOR AG, priority 2015, dated 2020).
Where a SMILES comes first, the peptide text is derived from it. Bridges are numbered along the chain shown (N, C = ends). Roman numbers before positions name the chains, in order. [ ]: non-standard residue; d: D form. Tle = CC(C)(C)[C@H](N)C(=O)O; dDab = NCC[C@@H](N)C(=O)O; Nle = CCCC[C@H](N)C(=O)O; Orn = NCCC[C@H](N)C(=O)O; Dab = NCC[C@H](N)C(=O)O

How the values were obtained:
Type in all cases: cell-based
[1] = tested on: Klebsiella pneumoniae SSI #3010; conditions: SSI #3010
Method in brief: (§1)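 MIC in μg/mL; CLSI microdilution; cation-adjusted Mueller-Hinton II with Polysorbate 80 (0.002%); 10^6 CFU/mL; 35° C, 18-20 h.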

[2] = tested on: Klebsiella pneumoniae 968733; conditions: 968733
[3] = tested on: Pseudomonas aeruginosa ATCC 27853; conditions: ATCC 27853
Method in brief: as §1

Escherichia coli 926415 = conditions: 926415
[4] = tested on: Acinetobacter baumannii 872842; conditions: 872842
[5] = tested on: Acinetobacter baumannii DSM 30008; conditions: DSM 30008
Method in brief: as §1

[6] = tested on: Escherichia coli ATCC 25922; conditions: ATCC 25922
Method in brief: as §1

[7] = tested on: human red blood cells (hRBC); assay: Hemolysis of human red blood cells; conditions: red cells of human, 1 h
Method in brief: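 Percent hemolysis = OD540 of peptide-treated supernatant relative to the 2.5% Triton X-100 (100%) control, PBS containing 0.001% acetic acid defining 0%. Peptides tested at 100 μg/mL against 20% (v/v) washed human RBC, 1 h, 37 °C, 300 rpm.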

CCCC[C@@H]1NC(=O)[C@@H]2CCCN2C(=O)[C@H]2CCCN2C(=O)[C@H](CO)NC(=O)[C@H](C)NC(=O)[C@H](C(C)(C)C)NC(=O)[C@H](CCN)NC(=O)[C@H](Cc2c[nH]c3ccccc23)NC(=O)[C@H](CCN)NC(=O)[C@H](CCC(=O)N[C@H](C(=O)N[C@@H](CCN)C(=O)N[C@H]2CCNC(=O)[C@H]([C@@H](C)O)NC(=O)[C@H](CCN)NC(=O)[C@H](CCN)NC(=O)[C@H](CC(C)C)NC(=O)[C@@H](Cc3ccccc3)NC(=O)[C@H](CCN)NC2=O)[C@@H](C)O)NC(=O)[C@H](CCCN)NC(=O)[C@H](CCN)NC(=O)[C@H](Cc2ccc(O)cc2)NC(=O)[C@H](CO)NC1=O [Ex. 6] (I: cyclo([Nle]SY[Dab][Orn]E[Dab]W[Dab][Tle]AS[dP]P) / II: T[Dab][Dab][Dab][dF]L[Dab][Dab]T; amide I:6-II:N; lactam II:3-II:C)
Klebsiella pneumoniae SSI #3010 MIC [1]: 0.5 µg/mL | Klebsiella pneumoniae 968733 MIC [2]: 2 µg/mL | Pseudomonas aeruginosa ATCC 27853 MIC [3]: 0.5 µg/mL | Escherichia coli 926415 MIC (Escherichia coli 926415): 1 µg/mL | Acinetobacter baumannii 872842 MIC [4]: 2 µg/mL | Acinetobacter baumannii DSM 30008 MIC [5]: 2 µg/mL | Escherichia coli ATCC 25922 MIC [6]: 0.25 µg/mL | Hemolysis at 100 μg/mL [7]; 100: <1%

CCCC[C@@H]1NC(=O)[C@@H]2CCCN2C(=O)[C@H]2CCCN2C(=O)[C@H](CO)NC(=O)[C@H](C)NC(=O)[C@H](C(C)(C)C)NC(=O)[C@H](CCN)NC(=O)[C@H](Cc2c[nH]c3ccccc23)NC(=O)[C@H](CCN)NC(=O)[C@@H](CCN)NC(=O)[C@H](CCC(=O)N[C@@H](CCN)C(=O)N[C@H](C(=O)N[C@@H](CCN)C(=O)N[C@H]2CCNC(=O)[C@H]([C@@H](C)O)NC(=O)[C@H](CCN)NC(=O)[C@H](CCN)NC(=O)[C@H](CC(C)C)NC(=O)[C@@H](Cc3ccccc3)NC(=O)[C@H](CCN)NC2=O)[C@@H](C)O)NC(=O)[C@H](CCN)NC(=O)[C@H](Cc2ccc(O)cc2)NC(=O)[C@H](CO)NC1=O [Ex. 7] (I: cyclo(W[Dab][Tle]AS[dP]P[Nle]SY[Dab]E[dDab][Dab]) / II: [Dab]T[Dab][Dab][Dab][dF]L[Dab][Dab]T; amide I:12-II:N; lactam II:4-II:C)
Klebsiella pneumoniae SSI #3010 MIC [1]: 0.25 µg/mL | Klebsiella pneumoniae 968733 MIC [2]: 2 µg/mL | Pseudomonas aeruginosa ATCC 27853 MIC [3]: 0.25 µg/mL | Escherichia coli 926415 MIC (Escherichia coli 926415): 0.25 µg/mL | Acinetobacter baumannii 872842 MIC [4]: 1 µg/mL | Acinetobacter baumannii DSM 30008 MIC [5]: 1 µg/mL | Escherichia coli ATCC 25922 MIC [6]: 0.125 µg/mL | Hemolysis at 100 μg/mL [7]; 100: 1%

CC(C)C[C@@H]1NC(=O)[C@@H](Cc2ccccc2)NC(=O)[C@H](CCN)NC(=O)[C@@H](NC(=O)[C@H](CCN)NC(=O)[C@@H](NC(=O)[C@H](CCN)NC(=O)[C@H]2CC(=O)N[C@@H](CCN)C(=O)N[C@@H](Cc3c[nH]c4ccccc34)C(=O)N[C@@H](CCN)C(=O)N[C@@H](C(C)(C)C)C(=O)N[C@@H](C)C(=O)N[C@@H](CO)C(=O)N3CCC[C@@H]3C(=O)N3CCC[C@H]3C(=O)N[C@@H](C(C)C)C(=O)N[C@@H](CO)C(=O)N[C@@H](Cc3ccc(O)cc3)C(=O)N[C@@H](CCN)C(=O)N[C@@H](CCCN)C(=O)N2)[C@@H](C)O)CCNC(=O)[C@H]([C@@H](C)O)NC(=O)[C@H](CCN)NC(=O)[C@H](CCN)NC1=O [Ex. 8] ([Dab]W[Dab][Tle]AS[dP]PVSY[Dab][Orn][dD][Dab]T[Dab][Dab][Dab][dF]L[Dab][Dab]T; lactam 18-C, N-14)
Klebsiella pneumoniae SSI #3010 MIC [1]: 0.25 µg/mL | Klebsiella pneumoniae 968733 MIC [2]: 2 µg/mL | Pseudomonas aeruginosa ATCC 27853 MIC [3]: 0.25 µg/mL | Escherichia coli 926415 MIC (Escherichia coli 926415): 1 µg/mL | Acinetobacter baumannii 872842 MIC [4]: 0.5 µg/mL | Acinetobacter baumannii DSM 30008 MIC [5]: 0.5 µg/mL | Escherichia coli ATCC 25922 MIC [6]: 0.25 µg/mL | Hemolysis at 100 μg/mL [7]; 100: 1%

CCCC[C@@H]1NC(=O)[C@@H]2CCCN2C(=O)[C@H]2CCCN2C(=O)[C@H](CO)NC(=O)[C@H](C)NC(=O)[C@H](C(C)(C)C)NC(=O)[C@H](CCN)NC(=O)[C@H](Cc2c[nH]c3ccccc23)NC(=O)[C@H](CCN)NC(=O)[C@@H](CCC(=O)N[C@@H](CCN)C(=O)N[C@H](C(=O)N[C@@H](CCN)C(=O)N[C@H]2CCNC(=O)[C@H]([C@@H](C)O)NC(=O)[C@H](CCN)NC(=O)[C@H](CCN)NC(=O)[C@H](CC(C)C)NC(=O)[C@@H](Cc3ccccc3)NC(=O)[C@H](CCN)NC2=O)[C@@H](C)O)NC(=O)[C@H](CCCN)NC(=O)[C@H](CCN)NC(=O)[C@H](Cc2ccc(O)cc2)NC(=O)[C@H](CO)NC1=O [Ex. 9] (I: cyclo([Nle]SY[Dab][Orn][dE][Dab]W[Dab][Tle]AS[dP]P) / II: [Dab]T[Dab][Dab][Dab][dF]L[Dab][Dab]T; amide I:6-II:N; lactam II:4-II:C)
Klebsiella pneumoniae SSI #3010 MIC [1]: 0.5 µg/mL | Klebsiella pneumoniae 968733 MIC [2]: 2 µg/mL | Pseudomonas aeruginosa ATCC 27853 MIC [3]: 0.5 µg/mL | Escherichia coli 926415 MIC (Escherichia coli 926415): 1 µg/mL | Acinetobacter baumannii 872842 MIC [4]: 2 µg/mL | Acinetobacter baumannii DSM 30008 MIC [5]: 0.25 µg/mL | Escherichia coli ATCC 25922 MIC [6]: 0.25 µg/mL | Hemolysis at 100 μg/mL [7]; 100: 1%

CCCC[C@@H]1NC(=O)[C@@H]2CCCN2C(=O)[C@H]2CCCN2C(=O)[C@H](CO)NC(=O)[C@H](C)NC(=O)[C@H](C(C)(C)C)NC(=O)[C@H](CCN)NC(=O)[C@H](Cc2c[nH]c3ccccc23)NC(=O)[C@H](CCC(=O)N[C@@H](CCN)C(=O)N[C@H](C(=O)N[C@@H](CCN)C(=O)N[C@H]2CCNC(=O)[C@H]([C@@H](C)O)NC(=O)[C@H](CCN)NC(=O)[C@H](CCN)NC(=O)[C@H](CC(C)C)NC(=O)[C@@H](Cc3ccccc3)NC(=O)[C@H](CCN)NC2=O)[C@@H](C)O)NC(=O)[C@@H](CCN)NC(=O)[C@H](CCCN)NC(=O)[C@H](CCN)NC(=O)[C@H](Cc2ccc(O)cc2)NC(=O)[C@H](CO)NC1=O [Ex. 10] (I: cyclo([Nle]SY[Dab][Orn][dDab]EW[Dab][Tle]AS[dP]P) / II: [Dab]T[Dab][Dab][Dab][dF]L[Dab][Dab]T; amide I:7-II:N; lactam II:4-II:C)
Klebsiella pneumoniae SSI #3010 MIC [1]: 0.25 µg/mL | Klebsiella pneumoniae 968733 MIC [2]: 2 µg/mL | Pseudomonas aeruginosa ATCC 27853 MIC [3]: 0.5 µg/mL | Escherichia coli 926415 MIC (Escherichia coli 926415): 0.5 µg/mL | Acinetobacter baumannii 872842 MIC [4]: 1 µg/mL | Acinetobacter baumannii DSM 30008 MIC [5]: 1 µg/mL | Escherichia coli ATCC 25922 MIC [6]: 0.125 µg/mL | Hemolysis at 100 μg/mL [7]; 100: 1%

CCCC[C@@H]1NC(=O)[C@@H]2CCCN2C(=O)[C@H]2CCCN2C(=O)[C@H](CO)NC(=O)[C@H](C)NC(=O)[C@H](C(C)(C)C)NC(=O)[C@@H](NC(=O)[C@H](Cc2c[nH]c3ccccc23)NC(C)=O)CSSC[C@@H](C(=O)N[C@@H](CCN)C(=O)N[C@H](C(=O)N[C@@H](CCN)C(=O)N[C@H]2CCNC(=O)[C@H]([C@@H](C)O)NC(=O)[C@H](CCN)NC(=O)[C@H](CCN)NC(=O)[C@H](CC(C)C)NC(=O)[C@@H](Cc3ccccc3)NC(=O)[C@H](CCN)NC2=O)[C@@H](C)O)NC(=O)[C@H](Cc2ccc(O)cc2)NC(=O)[C@H](CO)NC1=O [Ex. 12] (Ac-WC[Tle]AS[dP]P[Nle]SYC[Dab]T[Dab][Dab][Dab][dF]L[Dab][Dab]T; disulfide 2-11; lactam 15-C)
Klebsiella pneumoniae SSI #3010 MIC [1]: 0.125 µg/mL | Klebsiella pneumoniae 968733 MIC [2]: 0.5 µg/mL | Pseudomonas aeruginosa ATCC 27853 MIC [3]: 0.5 µg/mL | Escherichia coli 926415 MIC (Escherichia coli 926415): 0.125 µg/mL | Acinetobacter baumannii 872842 MIC [4]: 0.125 µg/mL | Acinetobacter baumannii DSM 30008 MIC [5]: 0.0625 µg/mL | Escherichia coli ATCC 25922 MIC [6]: 0.125 µg/mL | Hemolysis at 100 μg/mL ([7]; 100 μg/mL): <1%

CCCC[C@@H]1NC(=O)[C@@H]2CCCN2C(=O)[C@H]2CCCN2C(=O)[C@H](CO)NC(=O)[C@H](C)NC(=O)[C@H](C(C)(C)C)NC(=O)[C@@H](NC(=O)[C@H](Cc2c[nH]c3ccccc23)NC(C)=O)CSSC[C@@H](C(=O)N[C@@H](CCCN)C(=O)N[C@H](C(=O)N[C@@H](CCN)C(=O)N[C@H]2CCNC(=O)[C@H]([C@@H](C)O)NC(=O)[C@H](CCN)NC(=O)[C@H](CCN)NC(=O)[C@H](CC(C)C)NC(=O)[C@@H](Cc3ccccc3)NC(=O)[C@H](CCN)NC2=O)[C@@H](C)O)NC(=O)[C@H](Cc2ccc(O)cc2)NC(=O)[C@H](CO)NC1=O [Ex. 13] (Ac-WC[Tle]AS[dP]P[Nle]SYC[Orn]T[Dab][Dab][Dab][dF]L[Dab][Dab]T; disulfide 2-11; lactam 15-C)
Klebsiella pneumoniae SSI #3010 MIC [1]: 0.5 µg/mL | Klebsiella pneumoniae 968733 MIC [2]: 1 µg/mL | Pseudomonas aeruginosa ATCC 27853 MIC [3]: 0.5 µg/mL | Escherichia coli 926415 MIC (Escherichia coli 926415): 0.5 µg/mL | Acinetobacter baumannii 872842 MIC [4]: 0.25 µg/mL | Acinetobacter baumannii DSM 30008 MIC [5]: 0.125 µg/mL | Escherichia coli ATCC 25922 MIC [6]: 0.5 µg/mL | Hemolysis at 100 μg/mL ([7]; 100 μg/mL): 1%
